ChEMBL document CHEMBL1201862, “PubChem BioAssay data set” (2004)
The source made the active and inactive calls.

Tests used:
[1] = molecular target: Luciferin 4-monooxygenase (Photinus pyralis, UniProt P08659); assay: firefly luciferase enzyme inhibitors, dose response, biochemical, luminescence (AID 1891)
[2] = Luminescence Cell-Based Dose Confirmation HTS to Identify Inhibitors of Platelet Dense Granule Release. [Related pubchem assays: 1663 (Primary HTS), 1678 (Summary of Project)]; type: functional
[3] = microbe, parasite or virus in culture; type: functional; conditions: Mycobacterium tuberculosis
[4] = molecular target: T1, Carboxy-terminal domain RNA polymerase II polypeptide A small phosphatase 1 (Homo sapiens, UniProt Q9GZU7); assay: inhibitors of CTDSP1, concentration-response testing, biochemical assay, absorbance-based, actives from ultra-high-throughput screening (AID 540297); type: functional
T1 sequence (Q9GZU7 whole entry): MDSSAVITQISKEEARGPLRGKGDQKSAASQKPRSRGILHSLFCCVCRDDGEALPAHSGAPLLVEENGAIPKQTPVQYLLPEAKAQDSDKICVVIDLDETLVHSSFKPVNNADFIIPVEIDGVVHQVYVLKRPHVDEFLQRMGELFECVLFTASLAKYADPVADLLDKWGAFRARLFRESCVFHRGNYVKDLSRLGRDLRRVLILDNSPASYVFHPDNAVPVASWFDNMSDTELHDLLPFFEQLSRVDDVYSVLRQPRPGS

[5] = molecular target: T2, Replicative DNA helicase DnaB (Mycobacterium tuberculosis, UniProt P9WMR3); assay: DnaB intein splicing inhibitors, dose response, biochemical, cell-free fluorescence (AID 449749); type: functional
T2 sequence (P9WMR3 whole entry): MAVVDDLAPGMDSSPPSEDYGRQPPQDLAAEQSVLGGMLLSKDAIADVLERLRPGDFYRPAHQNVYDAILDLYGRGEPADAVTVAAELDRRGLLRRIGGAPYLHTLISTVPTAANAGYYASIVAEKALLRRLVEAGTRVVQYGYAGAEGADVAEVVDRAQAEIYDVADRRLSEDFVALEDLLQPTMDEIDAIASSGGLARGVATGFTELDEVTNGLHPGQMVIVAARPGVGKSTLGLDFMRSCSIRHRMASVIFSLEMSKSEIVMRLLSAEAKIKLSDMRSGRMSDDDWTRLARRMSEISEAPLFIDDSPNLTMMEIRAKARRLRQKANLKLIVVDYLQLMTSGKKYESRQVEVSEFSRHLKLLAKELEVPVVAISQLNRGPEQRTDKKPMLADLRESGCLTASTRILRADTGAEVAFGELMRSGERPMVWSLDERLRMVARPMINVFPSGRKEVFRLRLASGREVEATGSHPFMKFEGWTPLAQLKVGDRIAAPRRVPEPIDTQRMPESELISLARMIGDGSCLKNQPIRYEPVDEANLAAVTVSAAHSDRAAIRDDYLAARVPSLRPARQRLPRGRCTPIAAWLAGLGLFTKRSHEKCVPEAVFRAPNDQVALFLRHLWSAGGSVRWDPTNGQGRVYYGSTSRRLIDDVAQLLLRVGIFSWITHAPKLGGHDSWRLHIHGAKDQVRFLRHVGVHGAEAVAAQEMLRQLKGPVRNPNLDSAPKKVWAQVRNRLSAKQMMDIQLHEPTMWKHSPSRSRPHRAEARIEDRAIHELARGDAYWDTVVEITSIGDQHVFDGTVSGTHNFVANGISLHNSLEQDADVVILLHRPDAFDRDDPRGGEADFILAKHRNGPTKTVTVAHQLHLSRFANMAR

Protein RecA = molecular target: T3, Protein RecA (Mycobacterium tuberculosis, UniProt P9WHJ3); assay: Fluorescence Cell-Free Homogeneous Dose Retest to Identify Inhibitors of RecA-Intein Splicing Activity. [Related pubchem assays (depositor defined):AID2097, AID2223, AID489010, AID492950]; type: functional
T3 sequence (P9WHJ3 whole entry): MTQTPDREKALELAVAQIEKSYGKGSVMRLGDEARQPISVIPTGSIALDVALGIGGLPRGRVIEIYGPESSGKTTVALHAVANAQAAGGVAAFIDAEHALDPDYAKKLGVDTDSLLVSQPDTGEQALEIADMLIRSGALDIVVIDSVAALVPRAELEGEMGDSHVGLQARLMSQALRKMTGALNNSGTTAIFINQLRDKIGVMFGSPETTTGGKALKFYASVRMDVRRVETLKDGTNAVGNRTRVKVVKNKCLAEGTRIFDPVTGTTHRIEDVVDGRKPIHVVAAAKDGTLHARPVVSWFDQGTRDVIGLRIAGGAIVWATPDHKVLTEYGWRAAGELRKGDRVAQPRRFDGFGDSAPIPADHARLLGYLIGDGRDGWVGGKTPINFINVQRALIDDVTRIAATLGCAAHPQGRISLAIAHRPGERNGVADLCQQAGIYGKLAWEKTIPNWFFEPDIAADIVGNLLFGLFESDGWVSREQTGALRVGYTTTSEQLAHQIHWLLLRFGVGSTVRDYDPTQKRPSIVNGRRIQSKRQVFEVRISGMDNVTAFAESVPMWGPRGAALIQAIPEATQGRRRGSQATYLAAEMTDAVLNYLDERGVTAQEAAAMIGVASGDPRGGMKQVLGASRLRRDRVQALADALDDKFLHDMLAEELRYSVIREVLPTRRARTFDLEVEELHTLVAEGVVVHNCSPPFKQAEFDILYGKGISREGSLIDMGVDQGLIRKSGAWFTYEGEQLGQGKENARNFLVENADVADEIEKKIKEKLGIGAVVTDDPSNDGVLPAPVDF

cells = type: functional
[6] = Luminescence Cell-Based Dose Retest to Confirm Inhibitors of Cancer Stem Cells. [Related pubchem assays (depositor defined):AID2717, AID2721]; type: functional; conditions: Homo sapiens
[7] = HEp-2 cell cytotoxicity, dose response, cytotoxicity control for RSV inhibitor project, HTS (AID 2410); type: functional; conditions: human respiratory syncytial virus
[8] = test system: Streptococcus sp. 'group A'; assay: growth inhibition of control SK(-) GAS strain, dose response, counter-screen for streptokinase expression inhibitor project, luminescence, kanamycin, BacTiterGlo, confirmation (AID 1900); type: functional, organism-based
Streptokinase A = molecular target: T4, Streptokinase A (Streptococcus pyogenes serotype M1, UniProt P10520); assay: S. pyogenes streptokinase expression inhibitors, potency, dose response, plasminogen activation absorbance, OD405 (AID 1914); type: functional, Streptococcus pyogenes M1 GAS;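 note: secreted streptokinase activity via plasminogen activation per viability signal from cell pellet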
T4 sequence (P10520 whole entry): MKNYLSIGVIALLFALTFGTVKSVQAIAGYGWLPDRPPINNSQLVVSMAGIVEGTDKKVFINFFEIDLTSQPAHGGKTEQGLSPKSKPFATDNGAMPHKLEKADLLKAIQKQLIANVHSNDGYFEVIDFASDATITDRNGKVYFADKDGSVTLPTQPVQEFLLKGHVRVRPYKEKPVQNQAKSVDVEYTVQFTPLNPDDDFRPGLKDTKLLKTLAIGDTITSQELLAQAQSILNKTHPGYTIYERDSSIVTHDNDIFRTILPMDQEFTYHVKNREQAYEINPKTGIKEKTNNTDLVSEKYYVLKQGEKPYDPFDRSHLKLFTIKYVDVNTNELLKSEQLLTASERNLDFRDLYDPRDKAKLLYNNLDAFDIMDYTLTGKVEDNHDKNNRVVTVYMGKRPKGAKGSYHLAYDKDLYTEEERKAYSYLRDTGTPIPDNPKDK

Streptococcus = assay: Group A Streptococcus viability loss, dose response, counter-screen for streptokinase expression inhibitor project, luminescence, BacTiterGlo (AID 1915); type: functional, organism-based;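 note: potency for reduction of bacterial viability or growth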
Paired box protein Pax-8 = Paired box protein Pax-8 (Homo sapiens, UniProt Q06710); assay: inhibitors of PAX8-driven TPO luciferase reporter, dose response, RMG-I cells, cherry-pick (AID 687027); type: functional, cell-based;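 note: luciferase reporter driven by Pax8 target thyroperoxidase promoter measured by SteadyGlo luminescence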
Cytochrome P450 2C19 = Cytochrome P450 2C19 (Homo sapiens, UniProt P33261); assay: Cytochrome panel assay with activity outcomes. Panel member name: p450-cyp2c19 Compounds with AC50 equal or less than 10 uM are considered active; type: functional; conditions: read-out: AC50
Cytochrome P450 2C9 = Cytochrome P450 2C9 (Homo sapiens, UniProt P11712)
[9] = NIH-3T3 fibroblast cytotoxicity, dose response, cytotoxicity control, cell-based, fluorescence, Alamar Blue, secondary assay (AID 2327); type: functional;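 note: NIH-3T3 mouse fibroblasts cultured with fluconazole at 8 µg/mL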
[10] = C. albicans growth with fluconazole, confirmation, fluorescence, retest (AID 2467); type: functional, cell-based
[11] = inhibitors of intracellular T. cruzi replication, confirmation, NIH3T3 host cells, beta-gal luminescence (AID 2044); type: functional, cell-based;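 note: intracellular parasites grown in NIH/3T3 mouse fibroblasts as host cells; luminescent beta-galactosidase reporter signal from transgenic T. cruzi replicating inside host cells; inhibitors lower the luminescence signal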
[12] = cytotoxicity toward NIH3T3 fibroblasts, dose response, counter-screen, cell-based, ATP luminescence, mouse fibroblasts (AID 2010); type: functional;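 note: cells exposed to compound for about 90 hours before reading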

Luciferin 4-monooxygenase, sequence (P08659 whole entry): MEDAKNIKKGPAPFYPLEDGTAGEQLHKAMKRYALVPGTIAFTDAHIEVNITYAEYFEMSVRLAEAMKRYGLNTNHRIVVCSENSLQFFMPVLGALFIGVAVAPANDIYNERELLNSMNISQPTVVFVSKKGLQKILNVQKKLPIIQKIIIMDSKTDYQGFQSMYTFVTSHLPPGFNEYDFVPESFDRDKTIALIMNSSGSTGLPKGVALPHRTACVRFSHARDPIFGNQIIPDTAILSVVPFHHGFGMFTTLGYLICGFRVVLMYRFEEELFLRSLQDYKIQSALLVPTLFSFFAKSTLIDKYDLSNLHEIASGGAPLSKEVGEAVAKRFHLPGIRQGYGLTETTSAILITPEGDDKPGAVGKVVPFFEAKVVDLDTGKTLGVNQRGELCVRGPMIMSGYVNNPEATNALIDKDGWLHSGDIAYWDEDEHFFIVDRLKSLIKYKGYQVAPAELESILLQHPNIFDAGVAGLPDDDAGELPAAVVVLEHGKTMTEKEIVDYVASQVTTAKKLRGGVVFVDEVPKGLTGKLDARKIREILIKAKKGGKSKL
Paired box protein Pax-8, sequence (Q06710 whole entry): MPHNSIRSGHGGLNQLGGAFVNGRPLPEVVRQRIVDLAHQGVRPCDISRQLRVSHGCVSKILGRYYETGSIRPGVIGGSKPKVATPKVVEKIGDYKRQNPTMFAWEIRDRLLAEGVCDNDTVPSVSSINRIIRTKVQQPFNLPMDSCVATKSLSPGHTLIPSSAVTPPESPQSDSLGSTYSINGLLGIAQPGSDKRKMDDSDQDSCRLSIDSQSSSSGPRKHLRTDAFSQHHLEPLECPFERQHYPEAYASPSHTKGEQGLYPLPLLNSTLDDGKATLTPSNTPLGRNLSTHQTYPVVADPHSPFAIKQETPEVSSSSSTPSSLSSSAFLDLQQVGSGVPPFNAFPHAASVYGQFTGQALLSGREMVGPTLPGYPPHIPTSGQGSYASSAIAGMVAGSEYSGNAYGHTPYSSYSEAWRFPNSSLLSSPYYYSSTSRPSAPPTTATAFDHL
Cytochrome P450 2C9, sequence (P11712 whole entry): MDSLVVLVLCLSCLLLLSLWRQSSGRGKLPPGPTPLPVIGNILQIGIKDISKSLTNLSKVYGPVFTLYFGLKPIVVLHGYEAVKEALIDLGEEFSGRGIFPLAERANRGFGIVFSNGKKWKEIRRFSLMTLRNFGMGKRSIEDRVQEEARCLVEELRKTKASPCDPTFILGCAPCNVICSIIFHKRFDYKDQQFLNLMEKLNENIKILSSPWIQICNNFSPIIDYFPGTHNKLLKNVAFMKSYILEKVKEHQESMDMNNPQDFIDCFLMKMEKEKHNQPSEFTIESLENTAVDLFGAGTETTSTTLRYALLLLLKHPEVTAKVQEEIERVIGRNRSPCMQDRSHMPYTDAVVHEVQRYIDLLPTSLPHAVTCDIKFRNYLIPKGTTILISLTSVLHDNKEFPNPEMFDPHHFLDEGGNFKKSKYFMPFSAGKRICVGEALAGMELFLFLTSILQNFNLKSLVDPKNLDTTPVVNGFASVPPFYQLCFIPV
Cytochrome P450 2C19, sequence (P33261 whole entry): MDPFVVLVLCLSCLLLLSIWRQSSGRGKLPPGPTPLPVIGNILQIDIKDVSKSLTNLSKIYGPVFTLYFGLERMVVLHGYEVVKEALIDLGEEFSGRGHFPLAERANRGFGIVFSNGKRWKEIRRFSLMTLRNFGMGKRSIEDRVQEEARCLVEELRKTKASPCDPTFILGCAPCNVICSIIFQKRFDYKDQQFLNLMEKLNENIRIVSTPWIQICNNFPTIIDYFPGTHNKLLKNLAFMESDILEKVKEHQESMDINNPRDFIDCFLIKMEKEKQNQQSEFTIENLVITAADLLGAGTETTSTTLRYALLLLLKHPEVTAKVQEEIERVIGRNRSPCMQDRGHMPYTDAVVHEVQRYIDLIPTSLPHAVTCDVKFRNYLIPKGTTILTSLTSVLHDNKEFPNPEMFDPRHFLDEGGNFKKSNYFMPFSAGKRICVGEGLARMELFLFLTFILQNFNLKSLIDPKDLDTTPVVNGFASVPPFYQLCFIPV

Cc1cc(OC(C)C(=O)NCc2ccncc2)c2c3c(c(=O)oc2c1)CCC3 (configuration not stated)
EC50 [1]: > 112 µM (not active) | EC50 [2]: > 112 µM (not active)

Cc1cccc(C)c1OCC(=O)Nc1cccc(-c2nnc(-c3ccccc3)o2)c1
CC50 [3]: 34.9 µM (active)

C=CCOc1ccc(/C=C\c2nc(O)c([N+](=O)[O-])c(O)n2)cc1OC
IC50 [4]: 13.7 µM (active)

NCCCn1c(C(=O)c2ccc(Cl)cc2)c2ccc([N+](=O)[O-])cc2[n+]1[O-]
CC50 [3]: 35.4 µM (active)

CC1=NN(c2ccccc2)C(=O)/C1=C\c1cn(C)c2ccccc12
AC50 [5]: 17.7 µM (active) | EC50 (Protein RecA): 6.5 µM (active)

O=C(CCCCCNc1nc(S)nc2ccccc12)N1CCN(c2ccccn2)CC1
CC50 [3]: > 40 µM (active)

O=S(=O)(c1cccc(-c2nnc(SC(F)F)n2-c2ccccc2)c1)N1CCCCC1
EC50 [1]: > 112 µM (not active) | EC50 [2]: > 112 µM (not active)

O=C(Cc1ccccc1)N/N=C/c1ccc(OCC(=O)Nc2ccccc2)cc1
IC50 [4]: 10.2 µM (active)

Cc1ccc(C2=[N+]([O-])C3(CCCCC/C3=N\O)N(O)C2(C)C)o1 (configuration not stated)
EC50 [1]: > 112 µM (not active) | EC50 [2]: > 112 µM (not active)

CC1CCN(C(=S)NC(=O)c2cccs2)CC1
CC50 [3]: > 40 µM (active)

COc1ccc(CCNC(=O)c2cc3c(=O)n4ccccc4nc3n(Cc3ccco3)c2=N)cc1OC
EC50 [1]: > 112 µM (not active) | EC50 [2]: 44 µM (active)

Cc1cc(C=C2C(=O)NC(=S)NC2=O)c(C)n1C1CCCC1
CC50 [3]: > 40 µM (active) | IC50 (cells): 10.4 µM (active)

O=C(Nc1cc(S(=O)(=O)N2CCCCC2)ccc1Cl)C1COc2ccccc2O1 (configuration not stated)
IC50 [4]: 46.4 µM (active)

CCOc1cc(/C=C2/SC(=S)N(Cc3ccccc3)C2=O)ccc1O
AC50 [6]: 1.42 µM (active) | AC50 [5]: 38.9 µM (active) | EC50 (Protein RecA): 3.96 µM (active)

Cc1nnc2n(Cc3ccccc3)c(=O)c3c4c(sc3n12)COC(C(C)C)C4 (configuration not stated)
CC50 [7]: 31.3 µM (active) | EC50 [1]: > 112 µM (not active) | EC50 [2]: > 112 µM (not active)

CC(C)=CCOc1ccc([C@@H]2COc3c(ccc4c3C=CC(C)(C)O4)C2)c(O)c1
EC50 [8]: 2.28 µM (active) | EC50 (Streptokinase A): > 150 µM (not active) | CC50 [3]: > 40 µM (active) | EC50 (Streptococcus): 2.25 µM (active) | AC50 [6]: 3.44 µM (active)

COC(=O)c1sc(N)c(C(=O)OC)c1COC(=O)CNS(=O)(=O)c1ccc(C)cc1
EC50 [1]: > 112 µM (not active) | EC50 [2]: > 112 µM (not active)

Nc1ccc(-c2nc3ccccc3o2)cc1
EC50 [1]: 51.5 µM (active) | EC50 [2]: > 112 µM (not active)

C[C@@H]1CN([C@@H](C)CO)C(=O)c2ccccc2-c2ccccc2CO[C@@H]1CN(C)Cc1ccc2c(c1)OCCN2C
AC50 (Paired box protein Pax-8): 29.5 µM (active)

C[C@H](CO)N1C[C@H](C)[C@@H](CN(C)Cc2ccc(Cl)c(Cl)c2)OCCCC[C@H](C)Oc2ccc(NC(=O)Nc3ccc(C(F)(F)F)cc3)cc2C1=O
AC50 (Paired box protein Pax-8): 4.17 µM (active)

CCOC(=O)c1cc(CC)sc1NC(=O)c1cc(OCC)c(OCC)c(OCC)c1
CC50 [3]: > 40 µM (active) | AC50 (Cytochrome P450 2C19): 25.1 µM (inconclusive) | AC50 (Cytochrome P450 2C9): 20 µM (inconclusive)

O=C(/C=C/c1ccccc1)Nn1c(-c2cccs2)nc2ccccc2c1=O
EC50 [9]: > 160 µM (inactive) | EC50 [10]: 0.102 µM (active)

C=CCn1c(NC(=O)c2ccc(Br)o2)c(C(=O)OCC)sc1=S
EC50 [9]: > 160 µM (inconclusive) | EC50 [10]: > 38 µM (not active)

Cc1cccc(N2CCN(c3nc(C)cc(C)c3C#N)CC2C)c1 (configuration not stated)
EC50 [9]: 41.3 µM (active) | EC50 [10]: > 38 µM (not active) | EC50 [11]: 3.63 µM (active) | EC50 [12]: > 60 µM (not active)

Cc1c(CC(=O)O)c(=O)oc2c(C)c3occ(-c4ccc(Br)cc4)c3cc12
IC50 [4]: 7.37 µM (active)

CCOC(=O)c1ccc(COC(=O)c2ccc(-c3nnc(-c4ccccc4)o3)cc2)o1
EC50 [1]: 28.5 µM (active) | EC50 [2]: 8.77 µM (active) | IC50 (cells): > 50 µM (active)

Cc1cc(C(=O)c2ccc(Cl)cc2)c(NC(=O)CCl)s1
AC50 [5]: 24.4 µM (active) | EC50 (Protein RecA): 0.481 µM (active)

Cc1cc(C(=O)COc2ccc3ccc(=O)oc3c2)c(C)n1Cc1cccs1
IC50 [4]: 6.2 µM (active)

COC(=O)c1oc2ccc(Br)cc2c1-n1cccc1
EC50 [1]: > 112 µM (not active) | EC50 [2]: > 112 µM (not active)

Cc1cc(-c2nnc(CCC(=O)NC(C)c3cccc4ccccc34)o2)no1 (configuration not stated)
EC50 [1]: > 112 µM (not active) | EC50 [2]: > 112 µM (not active)

Cn1c(-c2ccccc2)c(C(=O)CCl)c2ccccc21
EC50 [11]: 0.998 µM (active) | EC50 [12]: 2.44 µM (active) | AC50 [5]: 6.94 µM (active) | EC50 (Protein RecA): 3.04 µM (active)
